The data set can be described thus: gradient 5% acetonitrile 3 min, to 50% in 2 min, to 85% in 15 min, held 3 min, 100 µL/min. The note with it: column: Zorbax Extend-C18 2.1 x 50 mm; eluents: water / acetonitrile, 0.1% formic acid. An outline of the steps:
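Mixtures of ~100 pure standards were chromatographed on a Zorbax Extend-C18 column (2.1 × 50 mm, 1.8 μm) at 100 μL/min using water and acetonitrile, each with 0.1% formic acid. Detection used a quadrupole time-of-flight mass spectrometer in positive and negative ionization mode, and data collection spanned 3 months. Retention time was obtained from adduct peaks picked computationally and each checked manually.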
In the case of `COc1cc(NC(=O)N2CCCC2c2cccc(F)c2)cc(OC)c1OC` (stereo not drawn), the RP-LC retention time was found to be 848 s.

On to `O=C(Nc1cccc(C(F)(F)F)c1)C1CCCN(c2ncnc3c2nc2n3CCCCC2)C1` (stereo not drawn), for which the RP-LC retention time came to 958 s. Regarding `C=CCn1c(=O)c2ccccc2n(Cc2nc(-c3cccc(Br)c3)no2)c1=O`, the RP-LC retention time was 1140 s.

Molecule `CCOc1ccc(C(=O)N2C[C@H](c3nc(-c4ccncc4)no3)[C@@H](C)C2)cc1` returned an RP-LC retention time of 838 s.

The molecule `Cc1ccc(-c2cn3c(CC(=O)NCCCc4ccccc4)csc3n2)cc1C` showed an RP-LC retention time of 887 s. As to `CCN(CC)CCCNC(=O)C1CCCN(c2nnc(C)c3c(C)n(-c4ccccc4)nc23)C1` (stereo not drawn), the RP-LC retention time was 556 s.

In the case of `COc1ccc(N2CCN(C(=O)C3CCN(S(=O)(=O)c4cn(C(C)C)cn4)CC3)CC2)cc1`, the RP-LC retention time was found to be 706 s.

For the molecule `Cc1cc(=O)n(CC(=O)Nc2ccc(Br)cc2)c(N2CCC(C)CC2)n1`, the RP-LC retention time worked out at 793 s. The result for `COCc1noc([C@@H]2CC(F)(F)CN2C(=O)c2occc2C)n1` reads 788 s; that for `Cc1nc2nc(-c3ccccc3)nn2c(Sc2ccc(N)cc2)c1C`, 863 s; that for `Cc1ccn2cc(C(=O)NCc3ccc(F)cc3)nc2c1`, 645 s. `Cc1cc(C(=O)Nc2nnc(-c3csc(C)n3)o2)c(C)o1` came in with an RP-LC retention time of 599 s. The result for `O=C(NCCc1c[nH]c2ccccc12)c1cc(-c2cccnc2)nc2ccccc12` reads 741 s; that for `O=C(Cn1cccc(-c2nc(-c3ccc(F)cc3)no2)c1=O)Nc1ccc(Br)cc1`, 992 s. `CCn1cnc(S(=O)(=O)N2CCCC(C(=O)Nc3ccc(C)c(Cl)c3)C2)c1` (stereo not drawn) returned an RP-LC retention time of 861 s. In turn, `O=C(COc1cccc(Cl)c1)Nc1nc(-c2ccccc2)cs1` gave an RP-LC retention time of 1110 s. Regarding `O=C(CCc1cn(-c2ccccc2)nc1-c1ccc2c(c1)OCO2)NCCCN1CCOCC1`, the RP-LC retention time turned out to be 681 s. `O=C(Cc1ccc(F)cc1)N[C@H](Cc1ccccc1)C(=O)NCc1cscn1` displayed an RP-LC retention time of 741 s. In turn, `COc1ccc(-c2noc(CN3C(=O)COc4ccc(Cl)cc43)n2)c(OC)c1` showed an RP-LC retention time of 962 s. Regarding `COC(=O)c1ccccc1NC(=O)CCCn1cnc(-c2ccccc2)cc1=O`, the RP-LC retention time was found to be 811 s. As for `Clc1ccc(Nc2c(-c3ccc(N4CCOCC4)cc3)nc3cnccn23)cc1`, the RP-LC retention time was 842 s. Molecule `COc1ccc(S(=O)(=O)N2CC(C(=O)NC3CCCCC3)Oc3cc(C)ccc32)cc1` (stereo not drawn) registered an RP-LC retention time of 1170 s.

In the case of `COC(=O)c1cnc(N2CCN(c3ccccc3OC)CC2)c2ccccc12`, the RP-LC retention time came to 1030 s. The molecule `CCN(CC)CCNC(=O)c1cn(C)nc1S(=O)(=O)N1CCN(c2cc(Cl)ccc2C)CC1` registered an RP-LC retention time of 756 s. For `O=c1c2c(CO)c(-c3ccccc3)nn2ccn1Cc1ccccc1F`, the RP-LC retention time is 902 s. `COc1ccc(N2CC(c3nc(-c4cccc(Cl)c4)no3)CC2=O)cc1OC` (stereo not drawn) came in with an RP-LC retention time of 951 s. Turning to `O=C(Nc1cccc(Cl)c1F)N1CCc2nc[nH]c2C1`, the RP-LC retention time was 589 s. Consider `Cc1ccc(Oc2nccnc2N2CCCC(C(=O)Nc3ccc(Br)c(C)c3)C2)cc1` (stereo not drawn), for which the RP-LC retention time was 1290 s. Turning to `COc1ccc(NC(=O)[C@@H]2c3ccccc3C(=O)N3CCCC[C@@H]23)c(OC)c1`, the RP-LC retention time was 752 s. In turn, `Cc1ccn2cc(-c3ccc(NS(=O)(=O)c4ccc(Br)cc4)cc3)nc2n1` showed an RP-LC retention time of 689 s. For `CCc1ccc(NC(=O)N2CCCC(C)(C(=O)NCc3cccc(OC)c3)C2)cc1` (stereo not drawn) the value was 968 s; for `COc1cc(Nc2c(C(=O)N3CCCCC3C)cnc3nc(C)ccc23)cc(OC)c1` (stereo not drawn), 649 s. For `CC(=O)Nc1onc(C)c1-c1ccc(C)c(S(=O)(=O)NCc2ccc(Br)cc2)c1` the value was 870 s; for `CCc1nc2c(NC(=O)c3ccc(C)c(C)c3)cccn2n1`, 922 s. The molecule `Cc1nnc(SCC(=O)N2CCN(c3nnnn3-c3ccccc3)CC2)s1` yielded an RP-LC retention time of 653 s. Consider `CCCS(=O)(=O)N1CCC2(CC1)CN(c1ccccc1)C2=O`, for which the RP-LC retention time is 812 s. The result for `Cc1ccc2[nH]cc(CCNC(=O)CN3C(=O)CSc4cccn4-c4ccccc43)c2c1` reads 954 s.

In the case of `Cn1cc(-c2ccncc2)cc1C(=O)NCc1ccc(Cl)cc1`, the RP-LC retention time came out at 646 s. The molecule `Cc1cnc(-c2ccccc2)n1C1CN(Cc2cccc(C#N)c2)C1` displayed an RP-LC retention time of 559 s. `Cc1ccc(Cl)cc1N1CCN(C(=O)CCN2C(=O)C3C4C=CC(C4)C3C2=O)CC1` (stereo not drawn) had an RP-LC retention time of 989 s. As to `CCCN(CC1CCOC1)C(=O)c1ccc(F)c(Cl)c1` (stereo not drawn), the RP-LC retention time turned out to be 842 s. `CC(C)n1c(=O)c(NCc2ccc(F)cc2)nc2ccncc21`: the RP-LC retention time came to 669 s. In turn, `Cc1nc2ccc(Cl)cn2c(=O)c1NC(=O)c1ccc([N+](=O)[O-])cc1Cl` registered an RP-LC retention time of 668 s.

With `Cc1nc([C@@H]2CN(C(=O)CCc3nc4ccccc4s3)C[C@H]2C(N)=O)n[nH]1`, the RP-LC retention time amounted to 599 s. `O=C(CCn1c(=O)oc2ccccc21)N1CC(F)(F)C[C@H]1COc1ccccc1` showed an RP-LC retention time of 1000 s. The result for `Cc1nn(-c2ccccc2)c(C)c1S(=O)(=O)N1CCC(C(=O)NCCN2CCCCCC2)CC1` reads 672 s. `CN1C(=O)c2cccnc2Sc2cc(NC(=O)c3cc(Cl)ccc3F)ccc21` had an RP-LC retention time of 859 s.

Turning to `COc1ccc(NC(=O)Cn2c(C)cc(-c3nnc(C4CC4)o3)c2C)cc1Cl`, the RP-LC retention time worked out at 856 s. `Cc1nn(-c2ccc(N3CCOCC3)nn2)c(C)c1CCC(=O)Nc1ccc(F)cc1F` displayed an RP-LC retention time of 719 s. `Cc1nnc(N2CCCC(C(=O)NCc3cccc(Cl)c3)C2)c2nn(-c3ccccc3)c(C)c12` (stereo not drawn) gave an RP-LC retention time of 674 s.

For the molecule `CC1CCCN(c2nc(=O)n(CC(=O)Nc3ccc4c(c3)OCCO4)c3ccccc23)C1` (stereo not drawn), the RP-LC retention time was 780 s.

Molecule `O=S(=O)(c1cc(-c2cc(C(F)(F)F)on2)cs1)N1CCN(C2CCCCC2)CC1` yielded an RP-LC retention time of 775 s. `O=C(NCc1ccccc1)C1CCN(C(=O)C2Sc3ccccc3NC2=O)CC1` (stereo not drawn) returned an RP-LC retention time of 741 s. `COc1cc(CNC(=O)c2nnc(-c3ccc(S(=O)(=O)N(C)C)cc3)o2)cc(OC)c1`: the RP-LC retention time is 846 s. In turn, `COc1ccc(-c2nc3c(C)cccn3c2Nc2ccc(C)cc2)cc1` came in with an RP-LC retention time of 736 s.

Consider `COc1ccc(NC(=O)c2nc(C)oc2C)c(OC)c1`, for which the RP-LC retention time was 913 s. In turn, `COc1ccccc1-c1nc(Cn2nnc(-c3nc(-c4cccs4)no3)c2C)c(C)o1` gave an RP-LC retention time of 1050 s. For the molecule `CCN(CC)c1nc(C(=O)N2CCN(C3CCN(C)CC3)CC2)nc2nc(C)cc(C)c12`, the RP-LC retention time was 540 s. `O=C(Cn1cccc1-c1nc(-c2ccc3c(c2)OCO3)no1)Nc1ccccc1Cl` displayed an RP-LC retention time of 1100 s. In turn, `CCOc1ccc(-c2nnc(SCC(=O)N3CCCC3)o2)cc1` came in with an RP-LC retention time of 757 s. `Cc1cc(NC(=O)c2ccc(-n3ccnc3)nn2)no1`: the RP-LC retention time stood at 553 s. The result for `CCc1ccc(-c2cc(C)no2)cc1S(=O)(=O)N1CCN(c2ccccn2)CC1` reads 757 s; that for `FCCN(CCF)c1cccc(Cl)c1`, 1060 s; that for `COc1c(C=O)c(O)cc2c1C(=O)c1ccccc1C2=O`, 967 s. `O=C(Cn1c(CN2CCCCCC2)nc2ccccc21)N1CCCCC1` came in with an RP-LC retention time of 662 s. Consider `COc1ccc2[nH]cc(CCNC(=O)CN3C(=O)CSc4cccn4-c4ccccc43)c2c1`, for which the RP-LC retention time came to 859 s. Molecule `Cn1nc(-c2nnc(-c3ccccc3Cl)o2)c2c1CCN(C(=O)c1ccc(C(F)(F)F)cc1)C2` showed an RP-LC retention time of 943 s. In the case of `O=C(c1cnn(-c2ccccc2)n1)N1CCC(c2nnc(-c3ccc(F)cc3)o2)CC1`, the RP-LC retention time was determined as 888 s. In turn, `Brc1cccc(-c2noc(CSc3nccn3-c3ccccc3)n2)c1` came in with an RP-LC retention time of 1020 s. The molecule `Cc1ccc(CNC(=O)C2(C)CCCN(C(=O)NCc3ccccc3)C2)cc1` (stereo not drawn) showed an RP-LC retention time of 878 s. Consider `Cc1ccc(-n2ncc3c(=O)n(Cc4nc(-c5ccc(OC(C)C)cc5)no4)cnc32)cc1Cl`, for which the RP-LC retention time came out at 726 s. On to `CCc1nc(OCC(=O)Nc2ccccc2C(=O)OC)c2ccccc2n1`, for which the RP-LC retention time was 902 s. For `O=C(O)c1cccn2c(=O)c3ccccc3nc12` the value was 627 s; for `Cc1ccc2nc(C3CN(C(=O)c4c(-c5ccccc5Cl)noc4C)C3)[nH]c2c1`, 598 s; for `COC(=O)c1nc(NC(=O)Cn2nc3c(cc2=O)CCCC3)sc1-c1ccccc1`, 827 s. As for `Cc1oc(C2CCN(C(=O)Cc3ccccc3Cl)CC2)nc1C(=O)N1CCCC1`, the RP-LC retention time came out at 820 s. As to `Cc1noc(C2CN(C(=O)Cc3noc4ccccc34)C2)n1`, the RP-LC retention time came to 642 s. In turn, `O=C(NC1(c2nc(-c3ccncc3)no2)CCCCC1)c1ccccn1` had an RP-LC retention time of 885 s.

These data come from the METLIN SMRT retention time set (Domingo-Almenara et al. 2019).
